According to patent US7342133B2, “Substituted amino compounds as 5-HT/NA uptake inhibitors” (Gruenenthal GmbH, priority 2004, dated 2008):
Blank lines part the entries; values can stand above or below the compound they belong to.

Legend:
[1] = system: phenylquinone-induced writhing reactions; assay: Analgesic activity in the writhing test in the mouse; type: in vivo
Description: c) Studies of Analgesic Activity in the Writhing Test in the Mouse
The writhing test in the mouse is a modification of the method according to Hendershot L C, Forsaith, J, J Pharmacol Exp Ther 125: 237-240 (1959).
0.3 ml/animal of a 0.02% aqueous phenylquinone solution, with the addition of 5% ethanol, is administered intraperitoneally to the animals as pain stimulus. This solution is administered 30 minutes (test substance p.o.) or 10 minutes (test substance i.v.) after administration of the test substance. The pain-induced stretching movements (so-called writhing reactions=straightening of the body with extension of the rear extremities) are recorded 5 to 20 minutes after the administration of phenylquinone. The animals treated with the test substance are compared with a control group that received physiological saline. Size of the group n=10.

NA reuptake = assay: Inhibition of NA reuptake in rat brain synaptosomes (P2 fraction, hypothalamus); type: biochemical; settings: for Ki: hypothalamus, Ki from IC50 by Cheng-Prusoff
Description: (§1) a) Studies of the inhibition of 5-HT and NA reuptake
(§2) In order to be able to carry out these in vitro studies, synaptosomes are freshly isolated from areas of rat brain. A so-called “P2” fraction is used in each case, which is prepared exactly according to the procedure of Gray, E. G. and Whittaker, V. P. (J. Anat. 76, 79-88, 1962). For NA reuptake, these vesicular particles are isolated from the hypothalamus of male rat brains, and for 5-HT reuptake, they are isolated from the medulla +pons region.
(§3) The following characteristic data were determined for the NA and 5-HT reuptake: • NA uptake: Km=0.32±0.11 μM • 5-HT uptake: Km=0.084±0.011 μM (in each case N=4, i.e. mean values ± SEM from 4 independent test series which were carried out in triplicate parallel tests).
(§4) A detailed description of the method can be found in the publication of Frink, M., Hennies, H. H., Englberger, W. et al. (Arzneim.-Forsch./Drug Res. 46 (III), 11, 1029-1036, 1996) (the batch can also be carried out on microtitre plates (250 μl/well) at room temperature).
(§5) In addition to % inhibitions at fixed concentrations of test substance (e.g. 1×10^−6 M or 1×10^−5 M in the batch), dose dependencies were also checked. IC50 values were obtained thereby which can be converted into inhibitor constants (Ki) according to the “Cheng-Prusoff equation” (Cheng, Y. C. and Prusoff, W. H., Biochem. Pharmacol. 22, 3099-3108, 1973). The IC50 values were obtained with the aid of the “Figure P” computer program (Version 6.0, Biosoft, Cambridge, England). Km values were calculated according to Lineweaver, H. and Burk, D. (J. Am. Chem. Soc. 56, 658-666, 1934). The “Ligand” computer program (Version 4, Biosoft, England) was used to show KD values.

[2] = system: formalin-induced nociceptive behaviour (chronic pain component); assay: Analgesic activity in the formalin test in the mouse; type: in vivo
Description: b) Studies of Analgesic Activity in the Formalin Test in the Mouse The formalin test (Dubuisson, D. and Dennis, S. G., 1977, Pain, 4, 161-174) represents a model for acute and chronic pain. In the studies presented here, the chronic pain component was evaluated. By means of a single formalin injection into the dorsal side of a rear paw, a biphase nociceptive reaction is induced in freely mobile test animals; the reaction is assessed by observing three markedly different behaviour patterns. Formalin is injected subcutaneously in a volume of 20 μl and a concentration of 1% into the dorsal side of the right rear paw of each animal. The specific behavioural changes differing from normal behaviour (score 0), such as lifting (score 1) and shaking of the paw (score 2), as well as biting and licking reactions (score 3), are observed and recorded continuously at 3-minute intervals for 60 minutes after the formalin injection. […] The size of the group was 10 animals (n=10). On the basis of the PR calculations, the activity of the substance was determined in percent as the change relative to a control. The ED50 was determined by means of regression analysis.

[3] = system: duration of the phase of immobility; assay: Antidepressant activity in the forced swimming test (Porsolt test) in the mouse; type: in vivo; settings: for Relative duration of the phase of immobility versus control: i.p.
Description: d) Study of Antidepressant Activity in the Forced Swimming Test (Porsolt Test) in the Mouse The studies to determine the antidepressant activity of the compounds of formula I according to the invention were carried out in the forced swimming test (Porsolt test) in the mouse (Porsolt, R. et al., Arch. Int. Pharmacodyn. Vol. 229, p. 327-336 (1977)). Male mice (20-25 g body weight) were placed individually for a period of 6 minutes into a flat water tank from which they were unable to escape and accordingly were forced to swim. After some time, the animals gave up their attempts to swim and entered a phase of immobility. In the interval of from 2 to 6 minutes after introduction of the animal, the duration of the phase of immobility was determined. Test substance and vehicle groups each comprise 10 animals. Changes in the duration of the phase of immobility are stated relative to the vehicle control. Antidepressants induce a shortening of the phase of immobility.

5-HT reuptake = assay: Inhibition of 5-HT reuptake in rat brain synaptosomes (P2 fraction, medulla + pons region); type: biochemical; settings: for Ki: medulla + pons, Ki from IC50 by Cheng-Prusoff
Description: as §1, §2, §3, §4, §5

Structure (SMILES): CN(C)CC1=C(Cc2ccc(Cl)cc2)CCCCC1.Cl [Example 1, [2-(4-Chlorobenzyl)-cyclohept-1-enylmethyl]-dimethylamine; hydrochloride]
Inhibition of the nociceptive behaviour, writhing test (in words) [1]: dose-dependent inhibition
ED50 ([1]; i.v., phenylquinone i.p.): 3.04 mg/kg
Inhibition of NA reuptake (in words) (NA reuptake): dose-dependent inhibition
Ki (NA reuptake): 30 nM
Inhibition of the nociceptive behaviour, formalin test (in words) [2]: dose-dependent inhibition
ED50 ([2]; iv, chronic pain component): 4.71 mg/kg
Shortening of the phase of immobility, forced swimming test (in words) [3]: significant shortening of the phase of immobility
Relative duration of the phase of immobility versus control ([3]; 10 mg/kg): +9%
Relative duration of the phase of immobility versus control ([3]; 21.5 mg/kg): −34%
Relative duration of the phase of immobility versus control ([3]; 31.6 mg/kg, ***p < 0.001): −67%***
Relative duration of the phase of immobility versus control ([3]; 46.4 mg/kg, ***p < 0.001): −76%***
Inhibition of 5-HT reuptake (in words) (5-HT reuptake): dose-dependent inhibition
Ki (5-HT reuptake): 3 nM

melting point: 191 °C
Structure (SMILES): CN(C)CC1=C(Cc2ccc(Cl)cc2)CCC1.Cl

Structure (SMILES): CN(C)CC1=C(Cc2ccc(Cl)cc2)CCCCCC1.Cl [Example 2b, [2-(4-chlorobenzyl)-cyclooct-1enylmethyl]-dimethylamine; hydrochloride]
Inhibition of NA reuptake (in words) (NA reuptake): dose-dependent inhibition
Ki (NA reuptake): 340 nM
Inhibition of 5-HT reuptake (in words) (5-HT reuptake): dose-dependent inhibition
Ki (5-HT reuptake): 30 nM
melting point: 234 to 237 °C
